Activity calls are given as the source filed them. The calls are words filed in the database; no cut-off is given here.
Assays:
A-431 [1] = assay: Induction of necrosis in human A431 cells measured as increase of LDH release; type: functional, cell-based
[2] = target: Epidermal growth factor receptor (Homo sapiens, UniProt P00533); assay: Inhibition of EGFR tyrosine kinase activity
A-431 [3] = assay: Antiproliferative activity against human A431 cells after 72 hrs by MTT assay; details: A-431, 72 h
A-431 [4] = assay: Reversibility of antiproliferative activity against human A431 cells after recovery for 68 hrs in presence of 50 uM DTT by MTT assay; details: A-431, 68 h
A-431 [5] = assay: Induction of apoptosis in human A431 cells measured as increase in DNA fragmentation; type: functional, cell-based
A-431 [6] = assay: Reversibility of antiproliferative activity against human A431 cells after recovery for 68 hrs in presence of 100 uM DTT by MTT assay; details: A-431, 68 h
A-431 [7] = assay: Reversibility of antiproliferative activity against human A431 cells after recovery for 68 hrs by MTT assay; details: A-431, 68 h

Epidermal growth factor receptor, sequence (P00533 whole entry): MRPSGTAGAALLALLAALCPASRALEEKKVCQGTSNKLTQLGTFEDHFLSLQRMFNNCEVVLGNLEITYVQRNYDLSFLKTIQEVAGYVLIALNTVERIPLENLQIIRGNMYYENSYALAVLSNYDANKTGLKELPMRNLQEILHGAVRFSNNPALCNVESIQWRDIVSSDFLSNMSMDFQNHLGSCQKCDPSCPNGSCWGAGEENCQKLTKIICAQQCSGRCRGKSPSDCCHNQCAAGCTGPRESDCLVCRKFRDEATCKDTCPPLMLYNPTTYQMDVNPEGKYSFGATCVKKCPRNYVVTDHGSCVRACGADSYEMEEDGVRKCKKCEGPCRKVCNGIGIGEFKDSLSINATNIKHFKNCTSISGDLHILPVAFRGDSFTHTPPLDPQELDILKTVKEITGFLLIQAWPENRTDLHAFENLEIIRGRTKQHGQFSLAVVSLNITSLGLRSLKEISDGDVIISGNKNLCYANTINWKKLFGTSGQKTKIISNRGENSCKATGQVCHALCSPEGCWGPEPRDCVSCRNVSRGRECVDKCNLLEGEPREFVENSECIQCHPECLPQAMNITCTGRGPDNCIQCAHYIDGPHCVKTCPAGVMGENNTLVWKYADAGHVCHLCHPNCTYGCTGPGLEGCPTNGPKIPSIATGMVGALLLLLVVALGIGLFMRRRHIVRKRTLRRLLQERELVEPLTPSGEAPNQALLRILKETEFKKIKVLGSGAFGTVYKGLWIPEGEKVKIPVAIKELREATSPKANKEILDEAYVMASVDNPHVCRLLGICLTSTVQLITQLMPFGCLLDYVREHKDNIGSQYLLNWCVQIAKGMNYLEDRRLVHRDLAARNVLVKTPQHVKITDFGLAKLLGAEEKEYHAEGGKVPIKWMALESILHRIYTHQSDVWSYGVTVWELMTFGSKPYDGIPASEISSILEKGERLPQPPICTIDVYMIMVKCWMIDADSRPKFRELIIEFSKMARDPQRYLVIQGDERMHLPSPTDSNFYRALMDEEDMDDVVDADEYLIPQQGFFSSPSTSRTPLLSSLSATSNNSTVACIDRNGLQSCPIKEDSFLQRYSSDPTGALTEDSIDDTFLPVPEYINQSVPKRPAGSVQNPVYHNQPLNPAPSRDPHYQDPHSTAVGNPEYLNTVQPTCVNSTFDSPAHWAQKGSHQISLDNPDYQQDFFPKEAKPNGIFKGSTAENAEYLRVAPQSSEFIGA

| SMILES | Activity (A-431 [1]) | IC50 [2] [µM] | IC50 (A-431 [3]) [µM] | IC50 (A-431 [4]) [µM] | Activity (A-431 [5]) | IC50 (A-431 [6]) [µM] | IC50 (A-431 [7]) [µM] |
| --- | --- | --- | --- | --- | --- | --- | --- |
| COc1cc2ncnc(Nc3cccc(Br)c3)c2cc1OC | inactive |  |  |  |  |  |  |
| O=C(CCCCC1CCSS1)Nc1ccc2ncnc(Nc3cccc(Br)c3)c2c1 (stereo not drawn) |  | > 3 | 21.6 |  |  |  |  |
| O=C(CC1CCSS1)Nc1ccc2ncnc(Nc3cccc(Br)c3)c2c1 (stereo not drawn) |  | > 3 | 13.7 |  |  |  |  |
| O=C(Nc1ccc2ncnc(Nc3cccc(Br)c3)c2c1)C1CCSS1 (stereo not drawn) | inactive | 0.06 | 7.9 | 22.4 | Dose-dependent effect | 28.1 | 9.23 |
| C=CC(=O)Nc1ccc2ncnc(Nc3cccc(Br)c3)c2c1 | inactive |  |  |  |  |  |  |

— ChEMBL document CHEMBL1137325, “Multitarget-directed drug design strategy: a novel molecule designed to block epidermal growth factor receptor (EGFR) and to exert proapoptotic effects” (J Med Chem, 2006)
